This note sets out measurements from patent publication US20060183221A1, “Method for neural differentiation of embryonic stem cells using protease passaging techniques” (priority 2003, published 2006).

“Also recorded” adds a separate entry of the source.

The subject of one assay is SSEA4 selected HESCs. Put plainly: Neural differentiation of SSEA4 selected bulk passaged HESCs as serum free embryoid bodies with or without MEDII and S18, seeded and immunostained. It counts as cell-based, human. To be noted: with or without 10 μM S18 from day 13 to day 17. The procedure: Cultures were treated with or without 10 μM S18 from day 13 to day 17. After S18 treatment, serum free embryoid bodies were washed several times and cultured further until day 18. Serum free embryoid bodies were cut into pieces to seed down to polyornithine/laminin coated slides.
In the presence of MEDII, a consistently high proportion of the culture contained TH+ neurons, with the background of non-neural regions that was negative for the neuronal marker βIII-Tubulin typically lower than 10%. It was not determined whether the effect of MEDII induced more efficient neuralization or inhibited the generation of non-neural cell types. […] This proportion was determined by analysis of double staining of neural extensions for βIII-Tubulin and TH (FIG. 18), and overlaying Hoffman images with TH immunofluorescence (FIG. 19). The increase in the proportion of TH+ neurons in MEDII treated differentiations appeared to be due to the overall increase in neuronal differentiation, rather than an effect on the proportion of neurons that were dopaminergic, because the proportions of neurons that were TH+ in differentiations not exposed to MEDII was equally high. Another marker of DA cells, VMAT, was expressed in similarly high proportions of cells within the sfEBM cultures. TH+/VMAT−, TH−/VMAT+ and TH+/VMAT+ cells were observed (FIG. 20), possibly indicating temporal variability in the induction of expression of these markers prior to being co-expressed.

The next assay has as its system EB8-derived cells. Put plainly: Injection of ceramide analog treated EB8-derived stem cells into mouse brains, teratoma formation. Type of assay: in vivo. To be noted: EB8-derived cells treated with 75 μM S18 for 24-48 hours, injected into brain of 8-10 day old C57BL6 mice, analysed after 7-21 days. As to the method:
In vitro differentiating ES cells at stage EB8 were incubated for 24-48 hours with 75 μM S18, or 35 μM N-acyl sphingosine or other ceramide analogs. Protein was isolated from cells incubated with S18 for 24 hours and from untreated cells, separated by SDS-PAGE, and the expression of Oct4 was analyzed by immunoblotting.
Prior to injection into the mouse brain, ES cells were labeled with Vybrant-DiI (rhodamine fluorescence) for permanent vital staining and were mixed with India ink in order to track the injection channel and cell migration/tissue integration. 1×10^4 of the untreated ES-J1 cells were injected, while 2×10^4 of the S18-treated cells were injected in order to control for the percentage of cells lost to apoptosis. The ES cells were injected into the right brain hemisphere (bregma −1.5 mm, 1 mm lateral of central suture, 2.0 mm deep) of 8-10 day old C57BL6 mice using a Hamilton syringe. After 7-21 days, the mice were sacrificed, the brain isolated and fixed with 10% PBS-buffered formalin. The brains were Vibratome sectioned at 100 μm. The distribution of the injected cells was determined by fluorescence microscopy.

The test system of assay [1] is differentiating mouse ES cells (ES-J1). Put plainly: Apoptosis (TUNEL staining) in differentiating mouse ES cells incubated with ceramide analogs. Type of assay: cell-based. To be noted: for cell death: 20 hours with 75 μM S18; for TUNEL stained cells: 15 hours with 75 μM S16 or S18, or 35 μM C2-ceramide. The procedure:
In vitro neural differentiation of mouse ES cells (ES-J1, ES-D3) followed a serum deprivation protocol as described previously (Hancock, et al., 2000, Biochem. Biophys. Res. Commun. 271: 418-421). The differentiation stages are outlined in FIG. 2. Briefly, ES cells were grown on gamma-irradiated feeder fibroblasts for four days in Knockout DMEM/15% Knockout serum replacement, supplemented with ESGRO (LIF; Chemicon; Cat No. ESG1106) at a concentration of […] medium. ES cells were then grown for another four days on gelatin-coated bacterial culture dishes without a fibroblast feeder layer, and were then grown for three days in Knockout DMEM/15% heat-inactivated ES qualified Fetal Bovine Serum, supplemented with 10^3 units LIF per ml of medium. Upon trypsinization, ES cells were transferred to bacterial culture dishes without gelatin, and embryoid body (EB) formation was induced for four days in Knockout DMEM/10% heat-inactivated ES qualified FBS without LIF (EB4 stage). On the fifth day, floating and loosely attached EBs were rinsed off and transferred to tissue culture dishes. The EBs were allowed to attach to the tissue culture dish surface by incubation for another 24 hours in Knockout DMEM with 10% heat-inactivated ES qualified fetal bovine serum. Neural differentiation due to serum deprivation was induced by cultivation of the EBs for three days in DMEM/F12 (50/50), supplemented with 1×N2 (Invitrogen/Life Technologies; Cat No. 17502, dilution of 1: 100) but without serum (EB8 stage). Serum-deprived EBs were then trypsinized, plated on poly-L-ornithine/laminin-coated tissue culture dishes and grown for four days in DMEM/F12 (50/50), supplemented with N2 and 10 ng/ml FGF-2, but without serum. his incubation period is referred to as neuroprogenitor (NP) stage due to commitment of neuroepithelial precursor cells to neuroprogenitor cells. These cells have committed during the EB stages and were expanded during the NP stage. NPs grown for 48 hours upon replating of trypsinized EBs were referred to as the NP2 stage. On the fifth day of NP formation, the medium was changed to Neurobasal (Invitrogen/Life Technologies; Cat No. 21103-049), with 5% heat-inactivated FBS, and the cells were incubated for another seven days. During this time, NPs fully differentiate to glial cells and neurons. Cells cultured for 24 hours or 96 hours upon changing the medium were referred to as the D1 or D4 stage, respectively.
ES cells were cultured and differentiated to the EB4, EB8, NP2, or D4 stage following the protocol as described above. The ceramide analog S18 was dissolved in ethanol at a concentration of 100 mM and then added to the cells at a final concentration of 75 μM in medium. The cells at the EB8 stage were incubated for 48 hours in the presence of the ceramide analog and were then transplanted into mouse brains.
Differentiating ES cells were grown on cover slips and fixed with 4% paraformaldehyde in phosphate-buffered saline (PBS). Fixed cells were permeabilized with 0.5% Triton X-100 in PBS for 5 minutes at room temperature and unspecific binding sites were saturated by incubation with 3% ovalbumin in PBS for 1 hour at 37° C. The cover slips were then incubated with 5 μg/ml primary antibody (anti-ceramide clone 15B4 mouse IgM, Alexis; anti-PAR-4 rabbit IgG, Santa Cruz; anti-PCNA rabbit IgG, Santa Cruz; anti-nestin clone 401 rat IgG, BD Pharmingen) in 0.1% ovalbumin/PBS, followed by incubation with the appropriate fluorescence-labeled secondary antibody (5 μg/ml Alexa 546 conjugated anti-mouse IgG, Molecular Probes; Alexa 488 conjugated anti-rabbit IgG, Molecular Probes, Cy3 conjugated anti-mouse IgM, Jackson) for 2 hours at 37° C. The nuclei were stained by treatment with 2 μg/ml Hoechst 33258 in PBS for 30 minutes at room temperature. Apoptotic nuclei were stained using the fluorescein FragEL TUNEL assay (Oncogene) according to the manufacturer's instructions. […]

Take `CCCCCCCC/C=C\CCCCCCCC(=O)NC(CO)CO` [S18, N-(2-hydroxy-1-(hydroxymethyl)ethyl)-oleoylamide]: the “differences between S18− and S18+ cultures (sfEB, sfEBM)” value in the assay with SSEA4 selected HESCs was “No gross morphological or immunocytochemical staining differences were observed”. For the same compound, the teratoma formation entry in the assay with EB8-derived cells is recorded as “No teratomas were detected; also recorded: did not show the formation of teratomas”. For the same compound, the cell death result in assay [1] (EB8 and NP2 stages) is reported as “high degree of cell death”; in assay [1] (differentiated neurons), “unaffected”. In addition, the values for the TUNEL stained cells in assay [1] (EB8 stage) and in assay [1] (NP2 stage) were 45±10% and 70±10%, respectively.
